In EP0341019A2, “Polyether antibiotic” (priority 1988, dated 1989):
Values after ≈ are worked out from the molar mass of the structure shown.

Assays:
[1] = system: Staphylococcus aureus X1.1; format: cell-based; conditions: X1.1, 24 h
[2] = system: Streptococcus pneumoniae Park 1; format: cell-based; conditions: 24 h
[3] = system: Eimeria maxima Strain FS-177; test: anticoccidial feed test in infected chickens, ionophore-sensitive strain; format: in vivo
[4] = system: Streptococcus faecalis 2041; format: cell-based; conditions: Enterococcus faecalis, 2041, 24 h
Serratia marcescens X99 = format: cell-based; conditions: X99, 24 h
[5] = system: Staphylococcus epidermidis 270; format: cell-based; conditions: Staphylococcus epidermidis, 270, 24 h
[6] = effect on growth of uninfected chicks; format: in vivo; conditions: Table XXI, Compound ppm r3-r7: 0,8,10,12,14
From the text: Newly hatched chickens are raised in a coccidial-free environment for a seven-day period. On the morning of the eighth day, the chickens are weighed and assigned to treatment groups.
Each group of chicks (usually 4 or 5 chicks per group) is housed in a battery cage during the experiment. A constant lighting schedule and ad libitum access to feed (each experiment contains non-medicated and drug-medicated treatments) and water are provided for the chicks in each battery. Two days after the experiment is initiated, chicks that are designated to be infected are crop-intubated with a pure suspension of coccidial oocysts. The oocyst dosage used in each test is designed to produce clinical coccidiosis in infected nonmedicated animals.
After an additional seven-day growth period, the experiment is terminated. Each group of chicks is weighed, and the amount of feed consumed by each group is determined. From these measurements, final bird weights and efficiency of feed utilization are calculated. All birds are then sacrificed, and the intestine. and cecum are examined for the presence of coccidial-induced lesions.

[7] = system: Bacteroides melaninogenicus 1856/28; format: cell-based; conditions: Prevotella intermedia, 1856/28, 24 h
[8] = system: Herpes simplex viruses (HSV I); test: antiviral tissue-culture test; format: cell-based, Herpes simplex virus
[9] = system: Pseudomonas aeruginosa X528; format: cell-based; conditions: X528, 24 h
[10] = system: Bacteroides fragilis 1877; format: cell-based; conditions: Bacteroides fragilis, 1877, 24 h
[11] = system: Staphylococcus aureus X400; format: cell-based; conditions: X400, 24 h
Treponema hyodysenteriae = test: growth inhibition of swine dysentery agent; format: cell-based
From the text: In another aspect the A82810 compounds are useful in the treatments of swine dysentery. A82810 inhibits the growth of Treponema hyodysenteriae, a causative agent of swine dysentery, at levels as low as 1.56 mcg/mL. A preferred method of administration to swine is by incorporation of an appropriate amount of an A82810 compound into the feed ration or drinking water. An appropriate amount will relate to whether the treatment is to prevent or to cure infection. Usually, a lower concentration of active compound is needed to prevent infection than is required for to eliminate infection in animals already afflicted. In general, amounts in the range of from about 20 to about 100 grams of A82810 compound per ton of feed are effective to prevent infection. Amounts in the range of from about 100 to about 500 g of A82810 compound per ton of feed are recommended for treating swine suffering from dysentery. These amounts provide from about 1 to about 5 mg/kg of body weight per day (prophylactic treatment) or from about 5 to about 25 mg/kg of body weight per day (treatment of infected animal). When added to the drinking water, amounts of from about 0.04 to about 0.2 g (prophylactic) or from about 0.2 to about 1 g (therapeutic) of A82810 compound per gallon of water are recommended.

[12] = system: Peptococcus asaccharolyticus 1302; format: cell-based; conditions: Peptoniphilus asaccharolyticus, 1302, 24 h
[13] = system: Eimeria acervulina Strain FS-273 and E. tenella Strain FS-456; test: anticoccidial feed test in infected chickens, ionophore-resistant strains; format: in vivo
Proteus sp. = format: cell-based; conditions: 24 h
[14] = system: Eubacterium aerofaciens 1235; format: cell-based; conditions: Collinsella aerofaciens, 1235, 24 h
[15] = system: E. acervulina Strain FS-316; test: anticoccidial feed test in infected chickens, ionophore-resistant strain; format: in vivo
Friend leukemia virus = test: antiviral tissue-culture test; format: cell-based
[16] = system: Bacteroides fragilis 1936B; format: cell-based; conditions: 24 h
Bacteroides fragilis 111 = format: cell-based; conditions: Bacteroides fragilis, 111, 24 h
[17] = system: Propionibacterium acnes 79; format: cell-based; conditions: Cutibacterium acnes, 79, 24 h
Salmonella sp = format: cell-based; conditions: 24-hour incubation
From the text: (§1) The formula 1 compounds (A82810 compounds) have antibacterial and anticoccidial activity. A82810 compounds are especially active against anaerobic bacteria. […]

[18] = system: Clostridium septicum 1128; format: cell-based; conditions: 24-hour incubation
From the text: as §1

[19] = system: Clostridium difficile 2994; format: cell-based; conditions: Clostridioides difficile, 24-hour incubation
From the text: as §1

Shigella sonnei = format: cell-based; conditions: 24-hour incubation
From the text: as §1

[20] = system: Streptococcus faecium X66; format: cell-based; conditions: Enterococcus faecium, X66, 24 h

Compound: CC[C@@H](O)[C@]1(C)C[C@H](C)[C@@](O)([C@H]2C[C@H](C)[C@H]([C@]3(C)C[C@@H](O[C@H]4CC[C@H](OC)[C@@H](C)O4)[C@H]([C@]4(C)CC[C@@]5(O[C@H]([C@@H](C)[C@@H](OC)[C@H](C)C(=O)O)[C@H](C)[C@@H](OC)[C@H]5C)O4)O3)O2)O1 [Example A82810]
- MIC [1]: 1 µg/mL (≈ 1.19 µM)
- MIC [2]: 1 µg/mL (≈ 1.19 µM)
- AVERAGE INTESTINAL LESION SCORES ([3]; 2 ppm): 1.9
- AVERAGE INTESTINAL LESION SCORES ([3]; 6 ppm): 0.6
- WEIGHT GAIN, PERCENT OF CONTROL ([3]; 6 ppm): 108% OF CONTROL
- AVERAGE INTESTINAL LESION SCORES ([3]; 10 ppm): 0.2
- WEIGHT GAIN, PERCENT OF CONTROL ([3]; 10 ppm): 102% OF CONTROL
- MIC [4]: 1 µg/mL (≈ 1.19 µM)
- MIC (Serratia marcescens X99): > 128 µg/mL
- MIC [5]: 1 µg/mL (≈ 1.19 µM)
- pKa (physchem): 6.6
- WEIGHT GAIN, PERCENT OF CONTROL ([6]; A82810 1.25 ppm): 98% OF CONTROL
- WEIGHT GAIN, PERCENT OF CONTROL ([6]; A82810 1.5 ppm): 101% OF CONTROL
- WEIGHT GAIN, PERCENT OF CONTROL ([6]; A82810 1.75 ppm): 105% OF CONTROL
- WEIGHT GAIN, PERCENT OF CONTROL ([6]; A82810 2.0 ppm): 99% OF CONTROL
- MIC [7]: 8 µg/mL (≈ 9.49 µM)
- active at levels as low as [8]: 1.56 µg/mL
- MIC [9]: 2 µg/mL (≈ 2.37 µM)
- MIC [10]: 8 µg/mL (≈ 9.49 µM)
- MIC [11]: 1 µg/mL (≈ 1.19 µM)
- inhibits the growth at levels as low as (Treponema hyodysenteriae): 1.56 µg/mL
- MIC [12]: ≤ 0.25 µg/mL
- LESION SCORE ([13]; 2 ppm): 7.2
- PERCENT REDUCTION IN OOCYST PRODUCTION ([13]; 2 ppm): 22%
- WEIGHT GAIN, PERCENT OF CONTROL ([13]; 2 ppm): 68% OF CONTROL
- LESION SCORE ([13]; 6 ppm): 3.7
- PERCENT REDUCTION IN OOCYST PRODUCTION ([13]; 6 ppm): 65%
- WEIGHT GAIN, PERCENT OF CONTROL ([13]; 6 ppm): 89% OF CONTROL
- LESION SCORE ([13]; 10 ppm): 2.0
- PERCENT REDUCTION IN OOCYST PRODUCTION ([13]; 10 ppm): 83%
- WEIGHT GAIN, PERCENT OF CONTROL ([13]; 10 ppm): 86% OF CONTROL
- MIC (Proteus sp.): > 128 µg/mL
- MIC [14]: ≤ 0.25 µg/mL
- AVERAGE INTESTINAL LESION SCORES ([15]; 0.5 ppm): 7.3
- WEIGHT GAIN, PERCENT OF CONTROL ([15]; 0.5 ppm): 72% OF CONTROL
- AVERAGE INTESTINAL LESION SCORES ([15]; 1 ppm): 7.8
- WEIGHT GAIN, PERCENT OF CONTROL ([15]; 1 ppm): 73% OF CONTROL
- AVERAGE INTESTINAL LESION SCORES ([15]; 1.5 ppm): 7.9
- WEIGHT GAIN, PERCENT OF CONTROL ([15]; 1.5 ppm): 73% OF CONTROL
- AVERAGE INTESTINAL LESION SCORES ([15]; 2 ppm): 8.8
- WEIGHT GAIN, PERCENT OF CONTROL ([15]; 2 ppm): 76% OF CONTROL
- active at levels as low as (Friend leukemia virus): 0.04 µg/mL
- MIC [16]: 8 µg/mL (≈ 9.49 µM)
- MIC (Bacteroides fragilis 111): 8 µg/mL (≈ 9.49 µM)
- MIC [17]: 2 µg/mL (≈ 2.37 µM)
- MIC (Salmonella sp): > 128 µg/mL
- MIC [18]: 0.5 µg/mL (≈ 0.593 µM)
- MIC [19]: 0.5 µg/mL (≈ 0.593 µM)
- MIC (Shigella sonnei): 2 µg/mL (≈ 2.37 µM)
- MIC [20]: 1 µg/mL (≈ 1.19 µM)
